Source: ChEMBL document CHEMBL1201862, “PubChem BioAssay data set” (2004)
Where a name gives a salt, the structure may show the parent alone.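 Cells were grown in 96-well plates and exposed to each compound for 48 hours at five concentrations; endpoints were interpolated linearly between bracketing concentrations, or set to the highest concentration if not reached. GI50 marks 50% less growth.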 The source made the active and inactive calls. Rule as the data show it: active = GI50 up to about 1.1 µM and inactive = higher.

Columns and labels:
Test in all cases: NCI tumour cell line growth inhibition, 48 h
HCC 2998 = test system: HCC 2998
SR = test system: SR
TK-10 = test system: TK-10
HT-29 = test system: HT-29
U-251 = test system: U-251
DMS-273 = test system: DMS-273
SK-MEL-5 = test system: SK-MEL-5
UO-31 = test system: UO-31
CAKI-1 = test system: CAKI-1
HCT-116 = test system: HCT-116
OVCAR-5 = test system: OVCAR-5
IGROV-1 = test system: IGROV-1
Malme-3M = test system: Malme-3M
OVCAR-3 = test system: OVCAR-3
RPMI-8226 = test system: RPMI-8226
SK-OV-3 = test system: SK-OV-3

Measured: GI50

NCC1(N2CCOCC2)C2CCCC21CNc1ccccc1 (centres undefined)
inactive: HCC 2998 61 µM | SR > 100 µM | TK-10 > 100 µM | HT-29 > 100 µM | U-251 > 100 µM | DMS-273 > 100 µM | SK-MEL-5 > 100 µM | UO-31 > 100 µM | CAKI-1 > 100 µM | HCT-116 > 100 µM | OVCAR-5 > 100 µM | IGROV-1 > 100 µM | Malme-3M > 100 µM | OVCAR-3 > 100 µM

CCN(CC)c1c(C)nnn1C1OC(COC(C)=O)C(OC(C)=O)C(OC(C)=O)C1OC(C)=O (centres undefined)
inactive: HCC 2998 > 100 µM | TK-10 > 100 µM | HT-29 > 100 µM | U-251 > 100 µM | RPMI-8226 28.6 µM | DMS-273 > 10 µM | SK-MEL-5 > 100 µM | UO-31 > 100 µM | CAKI-1 > 100 µM | HCT-116 > 100 µM | OVCAR-5 > 100 µM | SK-OV-3 > 100 µM | IGROV-1 > 100 µM | Malme-3M > 100 µM | OVCAR-3 > 100 µM

O=C1OC(c2ccccc2)=N/C1=C/N1CCCC1C(=O)O (centres undefined)
inactive: HCC 2998 > 100 µM | TK-10 > 100 µM | HT-29 > 100 µM | U-251 > 100 µM | RPMI-8226 > 100 µM | DMS-273 > 100 µM | SK-MEL-5 > 100 µM | UO-31 > 100 µM | CAKI-1 > 100 µM | HCT-116 > 100 µM | OVCAR-5 > 100 µM | SK-OV-3 > 100 µM | IGROV-1 > 100 µM | Malme-3M > 100 µM | OVCAR-3 > 100 µM

CNC(C)Cc1ccccc1OC (centres undefined) [METHOXYPHENAMINE HYDROCHLORIDE]
inactive: HCC 2998 > 100 µM | TK-10 > 100 µM | HT-29 > 100 µM | U-251 > 100 µM | RPMI-8226 > 100 µM | DMS-273 > 100 µM | SK-MEL-5 > 100 µM | UO-31 > 100 µM | CAKI-1 > 100 µM | HCT-116 > 100 µM | OVCAR-5 > 100 µM | SK-OV-3 > 100 µM | IGROV-1 > 100 µM | Malme-3M > 100 µM | OVCAR-3 > 100 µM

O=C(O)CC12C3C4C5C3C1C5C42 (centres undefined)
inactive: HCC 2998 > 100 µM | TK-10 > 100 µM | HT-29 > 100 µM | U-251 > 100 µM | RPMI-8226 > 100 µM | DMS-273 > 100 µM | SK-MEL-5 > 100 µM | UO-31 68.9 µM | CAKI-1 > 100 µM | HCT-116 > 100 µM | OVCAR-5 > 100 µM | SK-OV-3 > 100 µM | IGROV-1 > 100 µM | Malme-3M > 100 µM | OVCAR-3 > 100 µM
